Source: paper PMC4488288, “Inhibition of the Inositol Kinase Itpkb Augments Calcium Signaling in Lymphocytes and Reveals a Novel Strategy to Treat Autoimmune Disease” (PLoS ONE, 2015)

Biological target: T1, Itpkb (inositol trisphosphate 3' kinase B) (Mus musculus, UniProt B2RXC2)
T1 sequence (B2RXC2 1-942): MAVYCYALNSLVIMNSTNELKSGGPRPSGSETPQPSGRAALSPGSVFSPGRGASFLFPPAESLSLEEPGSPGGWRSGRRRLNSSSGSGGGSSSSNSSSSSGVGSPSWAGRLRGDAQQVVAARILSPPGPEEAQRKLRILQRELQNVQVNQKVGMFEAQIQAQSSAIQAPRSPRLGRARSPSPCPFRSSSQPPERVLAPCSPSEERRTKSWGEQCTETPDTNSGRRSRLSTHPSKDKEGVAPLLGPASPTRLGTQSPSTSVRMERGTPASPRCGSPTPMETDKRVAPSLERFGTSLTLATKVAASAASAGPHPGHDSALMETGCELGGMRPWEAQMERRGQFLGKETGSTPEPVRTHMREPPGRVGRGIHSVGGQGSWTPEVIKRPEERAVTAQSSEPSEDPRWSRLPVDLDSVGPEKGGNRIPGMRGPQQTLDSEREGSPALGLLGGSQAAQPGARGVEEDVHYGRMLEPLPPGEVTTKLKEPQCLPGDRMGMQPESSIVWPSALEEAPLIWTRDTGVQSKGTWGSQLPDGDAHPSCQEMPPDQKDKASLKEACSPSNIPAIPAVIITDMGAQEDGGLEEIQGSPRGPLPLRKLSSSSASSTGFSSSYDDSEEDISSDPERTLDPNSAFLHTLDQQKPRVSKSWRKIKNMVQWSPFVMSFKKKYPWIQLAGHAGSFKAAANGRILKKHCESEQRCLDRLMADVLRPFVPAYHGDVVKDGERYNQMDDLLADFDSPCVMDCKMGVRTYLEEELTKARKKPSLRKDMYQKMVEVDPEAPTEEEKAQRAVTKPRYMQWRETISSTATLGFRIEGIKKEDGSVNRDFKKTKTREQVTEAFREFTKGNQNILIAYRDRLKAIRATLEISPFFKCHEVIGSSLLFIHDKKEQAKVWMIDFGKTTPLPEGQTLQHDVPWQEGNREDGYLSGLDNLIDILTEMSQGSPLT
Assay: Kinase-Glo assay with purified Itpkb ([…] Itpkb, […] ATP, […] IP3)
Assay type: biochemical

IC50: 9 nM
Substance: GNF362
